In patent US11208497B2, “Antibodies comprising C-terminal light chain polypeptide extensions and conjugates and methods of use thereof” (ZYMEWORKS INC., priority 2013, dated 2021):

Tested on: CD30 antigen positive Karpas 299 cells
Assay: In vitro cell proliferation assay, Karpas 299 cells (Example 18)
Format: cell-based

B-MCvcPABC-MMAE: Brentuximab (B) without light chain extension conjugated to MCvcPABC-MMAE, DAR 3.5 [reference compound]
EC50: 8 pM
